Here are results for 64 compounds from paper PMC7539012, “Hyperphosphorylated tau aggregation and cytotoxicity modulators screen identified prescription drugs linked to Alzheimer's disease and cognitive functions” (Scientific Reports, 2020).

Structures are written as SMILES. Counter-ions that a name gives are not always drawn.

The subject of one assay is T1, 1N4R p-tau.
T1 construct: made in house; host or cells: E. coli (PIMAX system)
The assay can be described thus: p-tau aggregation modulator screen of 1280-compound library (ThS fluorescence net change over 16 h).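 As to ThS net change: 30 µM compound with 6 µM p-tau over 16 h.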 In kind it is biochemical. The arrangement: key to PTAI>2SD: *: PTAI>2SD.
Details: not given
In the case of `Brc1c(NC2=NCCN2)ccc2nccnc12.O=C(O)C(O)C(O)C(=O)O` [Brimondine L-Tartrate], the ThS net change is 418.
With `CC(C)C[C@H]1C(=O)N2CCC[C@H]2[C@]2(O)O[C@](NC(=O)[C@@H]3C=C4c5cccc6[nH]c(Br)c(c56)C[C@H]4N(C)C3)(C(C)C)C(=O)N12.CS(=O)(=O)O` [Bromocryptine mesylate], the ThS net change is given as 296.
In turn, `Clc1ccc(CCC(Cn2ccnc2)Sc2c(Cl)cccc2Cl)cc1` (centres unmarked) [Butoconazole nitrate] came in with a ThS net change of 237.

The assay is the same for the next values; noted with them: 1280-compound library screen; ThS fluorescence net change over 16 h.
As for `CN(C)CCC(c1ccc(Br)cc1)c1ccccn1` (centres unmarked) [Brompheniramine maleate], the ThS net change is 379.
Same read-out and setting: then `CCCC1O[C@@H]2C[C@H]3[C@@H]4CCC5=CC(=O)C=C[C@]5(C)[C@H]4[C@@H](O)C[C@]3(C)[C@]2(C(=O)CO)O1` (some centres unmarked) [Budesonide], with 389; and `CCCCNc1cc(C(=O)O)cc(S(N)(=O)=O)c1Oc1ccccc1` [Bumetanide], with 408.
Compound `CCCCOC(=O)c1ccc(N)cc1` [Butamben] showed a ThS net change of 387.
On to `CCCC[N+]1(C)[C@@H]2C[C@@H](OC(=O)[C@H](CO)c3ccccc3)C[C@H]1[C@@H]1O[C@@H]12.[Br-]` (some centres unmarked) [Butylscopolammonium (n-) bromide], for which the ThS net change was found to be 388.
The compound `C=C1/C(=C\C=C2/CCC[C@]3(C)[C@@H]([C@H](C)/C=C/[C@@H](O)C4CC4)CC[C@@H]23)C[C@@H](O)C[C@@H]1O` [Calcipotriene] returned a ThS net change of 407.
The same measure, in the same setting: as for `COC(=O)N/N=C/c1c[n+]([O-])c2ccccc2[n+]1[O-]` [Carbadox], the figure is 380; as for `CCN(CC)CCOCCOC(=O)C1(c2ccccc2)CCCC1` [Carbetapentane citrate], 402; as for `C[C@@](Cc1ccc(O)c(O)c1)(NN)C(=O)O` [Carbidopa], 395.
Compound `CCOC(=O)n1ccn(C)c1=S` [Carbimazole] gave a ThS net change of 380.
In the case of `COc1ccccc1OCCNCC(O)COc1cccc2[nH]c3ccccc3c12` (centres unmarked) [Carvedilol], the ThS net change turned out to be 394.
Same read-out and setting: as for `Cc1nnc(SCC2=C(C(=O)O)N3C(=O)[C@@H](NC(=O)Cn4cnnn4)[C@H]3SC2)s1` [Cefazolin sodium salt], the figure is 381.
`C=CC1=C(C(=O)O)N2C(=O)[C@@H](NC(=O)/C(=N\OCC(=O)O)c3csc(N)n3)[C@H]2SC1` [Cefixime] displayed a ThS net change of 408.
Still for that read-out and setting: as for `CO/N=C(\C(=O)N[C@@H]1C(=O)N2C(C(=O)O)=C(COC(C)=O)CS[C@H]12)c1csc(N)n1` [Cefotaxime sodium salt], the figure is 384; as for `CO[C@@]1(NC(=O)C2SC(=C(C(N)=O)C(=O)O)S2)C(=O)N2C(C(=O)O)=C(CSc3nnnn3C)CS[C@@H]21` (some centres unmarked) [Cefotetan], 392; as for `Cc1cc(O)c(C(=O)N[C@@H](C(=O)N[C@@H]2C(=O)N3C(C(=O)O)=C(CSc4nnnn4C)CS[C@H]23)c2ccc(O)cc2)cn1` [Cefpiramide], 407.
The same measure, in the same setting: then `NC(=O)c1cc[n+](CC2=C(C(=O)O)N3C(=O)[C@@H](NC(=O)[C@@H](c4ccccc4)S(=O)(=O)[O-])[C@H]3SC2)cc1` [Cefsulodin sodium salt], with 388.

The assay is the same for the next values; noted with them: 1280-compound library screen; […].
In turn, `CCCCOC(=O)c1ccc(O)cc1` [Butylparaben] displayed a ThS net change of 396.
Still for that read-out and setting: then `N[C@@H](C(=O)N[C@@H]1C(=O)N2C(C(=O)O)=C(Cl)CS[C@H]12)c1ccccc1.O` [Cefaclor hydrate], with 392.

Staying with this assay, now noted: flag: p-tau aggregation inhibitor, ThS net change more than 2 SD from mean.
`CCCCOc1ccc(CC(=O)NO)cc1` [Bufexamac]: the “PTAI>2SD” value is “*”.

The assay is the same for the next values; noted with them: library screen, ThS fluorescence net change over 16 h with p-tau.
`CCCCOc1ccc(CC(=O)NO)cc1` [Bufexamac] registered a ThS net change of 140.
`CC(NC(C)(C)C)C(=O)c1cccc(Cl)c1` (centres unmarked) [Bupropion hydrochloride] came in with a ThS net change of 278.
On the same count and under the same terms, as for `CS(=O)(=O)OCCCCOS(C)(=O)=O` [Busulfan], the figure is 324.

The assay is the same for the next values; noted with them: p-tau aggregation modulator screen of 1280-compound library; ThS fluorescence net change.
The compound `CCN[C@H]1CN(CCCOC)S(=O)(=O)c2sc(S(N)(=O)=O)cc21` [Brinzolamide] came in with a ThS net change of 348.
Compound `CCN(CC)CCNC(=O)c1cc(Br)c(N)cc1OC` [Bromopride] yielded a ThS net change of 373.
For `O=C(CCCN1CCC(O)(c2ccc(Br)cc2)CC1)c1ccc(F)cc1` [Bromperidol], the ThS net change was determined as 337.
`COc1cc(OC)c(C(=O)CCCN2CCCC2)c(OC)c1.Cl` [Buflomedil hydrochloride]: the ThS net change stood at 363.
Take `CCCCN1CCCCC1C(=O)Nc1c(C)cccc1C` (centres unmarked) [Bupivacaine hydrochloride]: the ThS net change amounted to 364.
Take `CCCCN(CCCC)CCCOC(=O)c1ccc(N)cc1` [Butacaine]: the ThS net change was 367.
`CCN(CC)CCNC(C(=O)OCCC(C)C)c1ccccc1.Cl.Cl` (centres unmarked) [Camylofine chlorhydrate] showed a ThS net change of 342.
The compound `C[C@H](CS)C(=O)N1CCC[C@H]1C(=O)O` [Captopril] gave a ThS net change of 370.
`NC(=O)N1c2ccccc2C=Cc2ccccc21` [Carbamazepine] gave a ThS net change of 370.
For `CC(C)(C)NCC(O)COc1cccc2c1CCC(=O)N2` (centres unmarked) [Carteolol hydrochloride], the ThS net change is reported as 377.
`CCN1CCN(C(=O)N[C@@H](C(=O)N[C@@H]2C(=O)N3C(C(=O)O)=C(CSc4nnnn4C)CS[C@H]23)c2ccc(O)cc2)C(=O)C1=O` [Cefoperazone dihydrate] came in with a ThS net change of 363.
In turn, `NCc1ccccc1CC(=O)N[C@@H]1C(=O)N2C(C(=O)O)=C(CSc3nnnn3CC(=O)O)CS[C@H]12` [Ceforanide] yielded a ThS net change of 351.
`CO[C@@]1(NC(=O)Cc2cccs2)C(=O)N2C(C(=O)O)=C(COC(N)=O)CS[C@@H]21` [Cefoxitin sodium salt] displayed a ThS net change of 354.
`CC(C)(O/N=C(\C(=O)N[C@@H]1C(=O)N2C(C(=O)[O-])=C(C[n+]3ccccc3)CS[C@H]12)c1csc(N)n1)C(=O)O` [Ceftazidime pentahydrate] displayed a ThS net change of 358.

The same assay, now with this note: p-tau aggregation modulator screen of 1280-compound library; […].
Compound `C=CCC1(CC(C)C)C(=O)NC(=O)NC1=O` [Butalbital] displayed a ThS net change of 374.
In turn, `CC[C@@]1(O)C(=O)OCc2c1cc1n(c2=O)Cc2cc3ccccc3nc2-1` [Camptothecine (S,+)] registered a ThS net change of 350.
On to `C[C@]12CCC(=O)C=C1C=C[C@@H]1[C@@H]2CC[C@@]2(C)[C@H]1CC[C@@]2(O)CCC(=O)[O-].[K+]` [Canrenoic acid potassium salt], for which the ThS net change is listed as 329.
`CCCC(C)(COC(N)=O)COC(=O)NC(C)C` (centres unmarked) [Carisoprodol]: the ThS net change worked out at 370.
Same read-out and setting: as for `CCC1=C[C@@H]2C[N@]3CCc4c([nH]c5ccccc45)[C@@](C(=O)OC)(C2)[C@@H]13` [Catharanthine], the figure is 374.

The same assay, now with this note: p-tau aggregation modulator screen of the compound library, ThS fluorescence net change.
Compound `CC[N+](C)(C)Cc1ccccc1Br` [Bretylium tosylate] displayed a ThS net change of 431.
`CN(Cc1cc(Br)cc(Br)c1N)C1CCCCC1` [Bromhexine hydrochloride] came in with a ThS net change of 545.
In turn, `O=C1CC2(CCCC2)CC(=O)N1CCCCN1CCN(c2ncccn2)CC1` [Buspirone hydrochloride] had a ThS net change of 445.
The same measure, in the same setting: as for `CN(Cc1ccc(C(C)(C)C)cc1)Cc1cccc2ccccc12` [Butenafine Hydrochloride], the figure is 436; as for `Cn1c(=O)c2c(ncn2C)n(C)c1=O` [Caffeine], 428.
`CCOc1nc2cccc(C(=O)O)c2n1Cc1ccc(-c2ccccc2-c2nnn[nH]2)cc1` [Candesartan]: the ThS net change was 415.
The compound `C[C@]12CCC(=O)C=C1C=C[C@@H]1[C@@H]2CC[C@@]2(C)[C@H]1CC[C@@]21CCC(=O)O1` [Canrenone] registered a ThS net change of 462.
In turn, `C[N+](C)(C)CCOC(N)=O` [Carbachol] had a ThS net change of 440.
With `CC1(C)[C@@H](OC(=O)CCC(=O)O)CC[C@]2(C)[C@H]3C(=O)C=C4[C@@H]5C[C@@](C)(C(=O)O)CC[C@]5(C)CC[C@@]4(C)[C@]3(C)CC[C@@H]12` [Carbenoxolone disodium salt], the ThS net change worked out at 460.
The same measure, in the same setting: as for `CN(C)CCOC(c1ccc(Cl)cc1)c1ccccn1.O=C(O)/C=C\C(=O)O` (centres unmarked) [Carbinoxamine maleate salt], the figure is 427; as for `CCCCCCNC(=O)n1cc(F)c(=O)[nH]c1=O` [Carmofur, 1-hexylcarbamoyl-5-fluorouracil], 1524.
Consider `CC(C(=O)O)c1ccc2c(c1)[nH]c1ccc(Cl)cc12` (centres unmarked) [Carprofen], for which the ThS net change stood at 478.
`CC1=C(C(=O)O)N2C(=O)[C@@H](NC(=O)[C@H](N)c3ccc(O)cc3)[C@H]2SC1` [Cefadroxil] showed a ThS net change of 413.
For the compound `C=CC1=C(C(=O)O)N2C(=O)[C@@H](NC(=O)/C(=N\O)c3csc(N)n3)[C@H]2SC1` [Cefdinir], the ThS net change was determined as 454.
In turn, `CO/N=C(\C(=O)N[C@@H]1C(=O)N2C(C(=O)O)=C(C[N+]3(C)CCCC3)CS[C@H]12)c1csc(N)n1` [Cefepime hydrochloride] showed a ThS net change of 418.
On to `CO[C@@]1(NC(=O)CSCC#N)C(=O)N2C(C(=O)O)=C(CSc3nnnn3C)CS[C@@H]21` [Cefmetazole sodium salt], for which the ThS net change stood at 468.
Same read-out and setting: then `CN(C)CCn1nnnc1SCC1=C(C(=O)O)N2C(=O)[C@@H](NC(=O)Cc3csc(N)n3)[C@H]2SC1` [Cefotiam hydrochloride], with 423; and `COCC1=C(C(=O)OC(C)OC(=O)OC(C)C)N2C(=O)[C@@H](NC(=O)/C(=N\OC)c3csc(N)n3)[C@H]2SC1` (some centres unmarked) [Cefpodoxime proxetil], with 454; and `Nc1nc(/C(=C/CC(=O)O)C(=O)N[C@@H]2C(=O)N3C(C(=O)O)=CCS[C@H]23)cs1` [Ceftibuten], with 441.
The compound `CO/N=C(\C(=O)N[C@@H]1C(=O)N2C(C(=O)OC(C)OC(C)=O)=C(COC(N)=O)CS[C@H]12)c1ccco1` (some centres unmarked) [Cefuroxime axetil] displayed a ThS net change of 445.
